From patent publication US8188085B2, “Antifungal agents” (Merck Sharp & Dohme Corp., priority 2008, dated 2012)

molecular target: glucan synthase (GS) prepared from Candida albicans MY1055 (Candida albicans, UniProt O13428); assay: Glucan synthase inhibition (polymerization assay, 96-well); type: biochemical; settings: GS from C. albicans MY1055; 60 min incubation at 22° C.; read-out: Candida Albicans GS IC50 (converted)
In short: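 Partially purified glucan synthase from C. albicans MY1055 membranes incorporated 0.5 mM ³H-UDPG with 25 μM GTP-γ-S, HEPES pH 7.5, over 60 min at 22 °C. TCA-precipitated glucan was counted by scintillation. IC50 (ng/mL) came from sigmoidal fits of duplicate 3-fold dilution series.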

Chain of glucan synthase (GS) prepared from Candida albicans MY1055 (O13428 1-1897): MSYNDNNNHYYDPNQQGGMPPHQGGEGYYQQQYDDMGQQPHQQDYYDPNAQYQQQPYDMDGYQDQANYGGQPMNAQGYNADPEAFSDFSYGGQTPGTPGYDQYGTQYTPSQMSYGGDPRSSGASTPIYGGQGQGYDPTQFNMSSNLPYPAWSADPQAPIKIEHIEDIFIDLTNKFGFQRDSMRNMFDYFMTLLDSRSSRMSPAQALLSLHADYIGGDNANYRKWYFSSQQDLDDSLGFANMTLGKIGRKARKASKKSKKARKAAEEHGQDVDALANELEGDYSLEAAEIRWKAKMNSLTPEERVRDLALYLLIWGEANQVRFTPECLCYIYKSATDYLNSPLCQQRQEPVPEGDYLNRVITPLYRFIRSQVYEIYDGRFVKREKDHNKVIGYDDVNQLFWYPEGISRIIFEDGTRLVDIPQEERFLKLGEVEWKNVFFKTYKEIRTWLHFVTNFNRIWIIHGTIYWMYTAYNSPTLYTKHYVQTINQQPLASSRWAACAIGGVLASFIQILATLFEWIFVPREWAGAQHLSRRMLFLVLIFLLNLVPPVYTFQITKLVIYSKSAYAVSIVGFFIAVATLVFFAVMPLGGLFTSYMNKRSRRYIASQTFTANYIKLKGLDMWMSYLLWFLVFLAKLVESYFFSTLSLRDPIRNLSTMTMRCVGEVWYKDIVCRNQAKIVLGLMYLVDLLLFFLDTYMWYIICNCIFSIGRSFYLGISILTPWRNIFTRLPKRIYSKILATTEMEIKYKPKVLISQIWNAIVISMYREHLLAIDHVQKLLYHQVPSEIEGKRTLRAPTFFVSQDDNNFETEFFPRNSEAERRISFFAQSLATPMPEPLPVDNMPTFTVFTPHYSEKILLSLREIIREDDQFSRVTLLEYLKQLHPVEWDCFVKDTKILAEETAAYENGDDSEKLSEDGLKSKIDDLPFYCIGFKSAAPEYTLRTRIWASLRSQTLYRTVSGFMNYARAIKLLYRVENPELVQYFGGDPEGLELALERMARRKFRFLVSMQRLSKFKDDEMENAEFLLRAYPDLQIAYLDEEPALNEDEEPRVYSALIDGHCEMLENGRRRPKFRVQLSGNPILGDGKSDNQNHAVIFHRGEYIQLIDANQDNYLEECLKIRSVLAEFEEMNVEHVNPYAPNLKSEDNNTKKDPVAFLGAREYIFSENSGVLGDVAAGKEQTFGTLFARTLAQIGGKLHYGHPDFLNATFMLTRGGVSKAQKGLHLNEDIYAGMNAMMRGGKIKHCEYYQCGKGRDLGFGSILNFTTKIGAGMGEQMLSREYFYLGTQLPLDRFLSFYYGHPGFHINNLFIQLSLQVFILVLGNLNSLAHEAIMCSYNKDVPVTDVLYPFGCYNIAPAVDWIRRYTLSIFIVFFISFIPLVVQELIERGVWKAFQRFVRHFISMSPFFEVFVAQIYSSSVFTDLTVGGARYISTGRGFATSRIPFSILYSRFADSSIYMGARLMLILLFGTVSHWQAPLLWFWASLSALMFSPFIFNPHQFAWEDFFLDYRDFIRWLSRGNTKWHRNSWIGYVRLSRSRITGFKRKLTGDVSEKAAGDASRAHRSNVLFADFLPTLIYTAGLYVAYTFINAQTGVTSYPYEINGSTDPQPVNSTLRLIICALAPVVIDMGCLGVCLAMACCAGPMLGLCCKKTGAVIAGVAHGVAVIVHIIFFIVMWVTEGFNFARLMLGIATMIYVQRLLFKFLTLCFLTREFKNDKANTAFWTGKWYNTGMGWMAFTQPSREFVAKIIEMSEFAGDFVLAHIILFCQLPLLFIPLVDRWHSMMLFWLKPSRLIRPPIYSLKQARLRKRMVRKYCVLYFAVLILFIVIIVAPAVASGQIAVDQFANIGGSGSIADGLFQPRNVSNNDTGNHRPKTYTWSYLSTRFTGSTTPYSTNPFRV

Row | SMILES | IC50 [nM]
1 | CC(C)[C@@H](C)[C@@]1(C)CC[C@]2(C)[C@H]3CC[C@@H]4[C@@]5(COC[C@@]4(C)[C@@H](OC[C@](C)(N)C(C)C)[C@H](n4cc(Cl)cn4)C5)C3=CC[C@@]2(C)[C@@H]1C(=O)O [Example 295, (1S,4aR,6aS,7R,8R,10aR,10bR,12aR,14R,15R)-15-[[(2R)-2-amino-2,3-dimethylbutyl]oxy]-14-(4-chloro-1H-pyrazol-1-yl)-8-[(1R)-1,2-dimethylpropyl]-1,6,6a,7,8,9,10,10a,10b,11,12,12a-dodecahydro-1,6a,8,10a-tetramethyl-4H-1,4a-propano-2H-phenanthro[1,2-c]pyran-7-carboxylic acid] | 61
2 | CCNC(=O)c1ccnn1[C@@H]1C[C@@]23COC[C@](C)([C@@H]2CC[C@H]2C3=CC[C@@]3(C)[C@H](C(=O)O)[C@@](C)([C@H](C)C(C)C)CC[C@]23C)[C@H]1OC[C@](C)(N)C(C)C [Example 298, (1S,4aR,6aS,7R,8R,10aR,10bR,12aR,14R,15R)-15-[[(2R)-2-amino-2,3-dimethylbutyl]oxy]-8-[(1R)-1,2-dimethylpropyl]-14-[5-[(ethylamino)carbonyl]-1H-pyrazol-1-yl]-1,6,6a,7,8,9,10,10a,10b,11,12,12a-dodecahydro-1,6a,8,10a-tetramethyl-4H-1,4a-propano-2H-phenanthro[1,2-c]pyran-7-carboxylic acid] | 38.1

Continued, values first:

Row | IC50 [nM] | SMILES
3 | 675 | CCOC(=O)c1nccn1[C@@H]1C[C@@]23COC[C@](C)([C@@H]2CC[C@H]2C3=CC[C@@]3(C)[C@H](C(=O)O)[C@@](C)([C@H](C)C(C)C)CC[C@]23C)[C@H]1OC[C@](C)(N)C(C)C [Example 300, (1S,4aR,6aS,7R,8R,10aR,10bR,12aR,14R,15R)-15-[[(2R)-2-amino-2,3-dimethylbutyl]oxy]-8-[(1R)-1,2-dimethylpropyl]-14-[2-(ethoxycarbonyl)-1H-imidazol-1-yl]-1,6,6a,7,8,9,10,10a,10b,11,12,12a-dodecahydro-1,6a,8,10a-tetramethyl-4H-1,4a-propano-2H-phenanthro[1,2-c]pyran-7-carboxylic acid]
4 | 5.6 | CC(C)[C@@H](C)[C@@]1(C)CC[C@]2(C)[C@H]3CC[C@@H]4[C@@]5(COC[C@@]4(C)[C@@H](OC[C@@]4(C)CCCN4)[C@H](n4ncnc4-c4ccncc4)C5)C3=CC[C@@]2(C)[C@@H]1C(=O)O [Example 307, (1S,4aR,6aS,7R,8R,10aR,10bR,12aR,14R,15R)-8-[(1R)-1,2-dimethylpropyl]-15-[[(2R)-2-methyl-2-pyrrolidinyl]methoxy]-14-[5-(4-pyridinyl)-1H-1,2,4-triazol-1-yl]-1,6,6a,7,8,9,10,10a,10b,11,12,12a-dodecahydro-1,6a,8,10a-tetramethyl-4H-1,4a-propano-2H-phenanthro[1,2-c]pyran-7-carboxylic acid]
5 | 17.8 | CN[C@@](C)(CO[C@H]1[C@H](n2nccc2-c2ccncc2)C[C@@]23COC[C@]1(C)[C@@H]2CC[C@H]1C3=CC[C@@]2(C)[C@H](C(=O)O)[C@@](C)([C@H](C)C(C)C)CC[C@]12C)C(C)C [Example 312, (1S,4aR,6aS,7R,8R,10aR,10bR,12aR,14R,15R)-15-[[(2R)-2,3-dimethyl-2-(methylamino)butyl]oxy]-8-[(1R)-1,2-dimethylpropyl]-14-[5-(4-pyridinyl)-1H-pyrazol-1-yl]-1,6,6a,7,8,9,10,10a,10b,11,12,12a-dodecahydro-1,6a,8,10a-tetramethyl-4H-1,4a-propano-2H-phenanthro[1,2-c]pyran-7-carboxylic acid]
